Experimental data from ChEMBL document CHEMBL6071148, “Synthesis and biological evaluation of novel 3,6- amide and thioamide substituted- 2,3,4,9-tetrahydro-1H-carbazoles for anti-cancer activity” (Eur J Med Chem, 2024).
Active and inactive are the calls of the source. The rule behind the calls is not given here.

What was measured:
HCT-116 [1] = experiment: Cytotoxicity against human HCT-116 cells assessed as inhibition of cell proliferation incubated for 72 hrs by MTT assay; format: functional, cell-based; conditions: HCT-116, 72 h
MCF7 [2] = experiment: Cytotoxicity against human MCF7 cells assessed as inhibition of cell proliferation incubated for 72 hrs by MTT assay; format: functional, cell-based; conditions: MCF7, 72 h
A549 [3] = experiment: Cytotoxicity against human A549 cells assessed as inhibition of cell proliferation incubated for 72 hrs by MTT assay; format: functional, cell-based; conditions: A549, 72 h
[4] = Cytotoxicity against human MRC5 cells assessed as inhibition of cell proliferation incubated for 72 hrs by MTT assay; format: toxicity, cell-based
Acetylcholinesterase = Acetylcholinesterase (Homo sapiens, UniProt P22303); experiment: Inhibition of AChE (unknown origin) by Ellman's method
Mitochondrial membrane [5] = experiment: Induction of mitochondrial membrane depolarization in human HCT-116 cells assessed as increase in mitochondrial fission by measuring appearance of shortened mitochondria by confocal microscopic analysis; format: cell membranes
HCT-116 [6] = experiment: Inhibition of colony formation in human HCT-116 cells assessed as reduction in clonogenic capacity incubated for 24 hrs by crystal violet staining based analysis; format: functional, cell-based
A549 [7] = experiment: Inhibition of colony formation in human A549 cells assessed as reduction in clonogenic capacity incubated for 24 hrs by crystal violet staining based analysis; format: functional, cell-based
[8] = Toxicity in chicken embryo chorioallantoic membrane at nanomolar concentration measured at day 6 by Kaplan Mayer survival analysis; format: tissue-based, Gallus gallus; conditions: in vivo
HCT-116 [9] = experiment: Induction of cell cycle arrest in human HCT-116 cells assessed as accumulation of cells at G1 phase at IC50 incubated for 48 hrs by PI staining based flow cytometric analysis relative to control; format: functional
Mitochondrial membrane [10] = experiment: Disruption of mitochondrial membrane integrity in human HCT-116 cells assessed as organization of mtDNA nucleoids within cells by TEM analysis; format: cell membranes
Mitochondrial membrane [11] = experiment: Induction of mitochondrial membrane depolarization in human HCT-116 cells assessed as increase in mitochondrial fission by measuring appearance of spherical mitochondria by confocal microscopic analysis; format: cell membranes
Mitochondrial membrane [12] = experiment: Disruption of mitochondrial membrane integrity in human HCT-116 cells assessed as presence of bloated mitochondria by TEM analysis; format: cell membranes
A549 [13] = experiment: Induction of DNA damage in human A549 cells assessed as increase in gammaH2AX positive cells at IC50 incubated for 48 hrs by PI staining based flow cytometric analysis; format: functional, cell-based
[14] = Toxicity in chicken embryo chorioallantoic membrane assessed as survival rate at 4.5 uM measured at day 6 by Kaplan Mayer survival analysis relative to control; format: tissue-based, Gallus gallus
[15] = Toxicity in chicken embryo chorioallantoic membrane assessed as survival rate at 1.5 uM measured at day 6 by Kaplan Mayer survival analysis relative to control; format: tissue-based, Gallus gallus
HCT-116 [16] = experiment: Induction of cell cycle arrest in human HCT-116 cells assessed as accumulation of cells at G2 phase at IC50 incubated for 24 hrs by PI staining based flow cytometric analysis relative to control; format: functional
Mitochondrial membrane [17] = experiment: Disruption of mitochondrial membrane integrity in human HCT-116 cells assessed as absence of well-developed cristae by TEM analysis; format: cell membranes
A549 [18] = experiment: Induction of cell cycle arrest in human A549 cells assessed as accumulation of cells at G2 phase at IC50 incubated for 48 hrs by PI staining based flow cytometric analysis (reference value: 38.15 +/- 1.80%); format: functional
HCT-116 [19] = experiment: Induction of cell cycle arrest in human HCT-116 cells assessed as accumulation of cells at G1 phase at IC50 incubated for 24 hrs by PI staining based flow cytometric analysis relative to control; format: functional
HCT-116 [20] = experiment: Inhibition of cell adhesion in human HCT-116 cells assessed as reduction in cell aggregates formation at IC50 incubated for 48 hrs by inverted phase contrast microscopic analysis; format: functional, cell-based
Mitochondrial membrane [21] = experiment: Disruption of mitochondrial membrane integrity in human HCT-116 cells assessed as mitochondrial swelling by TEM analysis; format: cell membranes
HCT-116 [22] = experiment: Induction of DNA damage in human HCT-116 cells assessed as gammaH2AX positive cells at IC50 incubated for 48 hrs by PI staining based flow cytometric analysis (reference value: 6.24 +/- 1.94%); format: functional
Mitochondrial membrane [23] = experiment: Disruption of mitochondrial membrane integrity in human HCT-116 cells assessed as disruption of normal mitochondrial distribution by TEM analysis; format: cell membranes
A549 [24] = experiment: Induction of cell cycle arrest in human A549 cells assessed as accumulation of cells at G1 phase at IC50 incubated for 48 hrs by PI staining based flow cytometric analysis (reference value: 53.5 +/- 4.01%); format: functional
HCT-116 [25] = experiment: Induction of cell cycle arrest in human HCT-116 cells assessed as accumulation of cells at S phase at IC50 incubated for 48 hrs by PI staining based flow cytometric analysis; format: functional
HCT-116 [26] = experiment: Induction of apoptosis in human HCT-116 cells assessed as increase in apoptotic cells incubated for 24 hrs by Annexin-V and 7-AAD staining based flow cytometric analysis (reference value: 8.10 +/- 2.16%); format: functional
Mitochondrial membrane [27] = experiment: Disruption of mitochondrial membrane integrity in human HCT-116 cells assessed as change in mitochondrial shape by TEM analysis; format: cell membranes
Mitochondrial membrane [28] = experiment: Disruption of mitochondrial membrane potential in human HCT-116 cells assessed as translocation of cytochrome c to cytoplasm at IC50 incubated for 48 hrs by confocal microscopic analysis; format: cell membranes
Mitochondrial membrane [29] = experiment: Disruption of mitochondrial membrane integrity in human HCT-116 cells assessed as change in mitochondrial internal organization by TEM analysis; format: cell membranes
A549 [30] = experiment: Induction of apoptosis in human A549 cells assessed as apoptotic rate at IC50 incubated for 48 hrs by Annexin-V and 7-AAD staining based flow cytometric analysis (reference value: 6.56 +/- 1.17%); format: functional
MCF7 [31] = experiment: Inhibition of colony formation in human MCF7 cells assessed as reduction in clonogenic capacity incubated for 24 hrs by crystal violet staining based analysis; format: functional, cell-based
Mitochondrial membrane [32] = experiment: Induction of mitochondrial membrane depolarization in human A549 cells assessed as decrease in ratio of J-aggregates to J-monomer incubated for 24 hrs by JC-1 staining based flow cytometric analysis (reference value: 17.72 +/- 3.94%); format: cell membranes
A549 [33] = experiment: Inhibition of cell adhesion in human A549 cells assessed as reduction in cell aggregates formation at IC50 incubated for 48 hrs by inverted phase contrast microscopic analysis; format: functional, cell-based
A549 [34] = experiment: Induction of cell cycle arrest in human A549 cells assessed as accumulation of cells at S phase at IC50 incubated for 24 hrs by PI staining based flow cytometric analysis (reference value: 39.41 +/- 2.54%); format: functional
Mitochondrial membrane [35] = experiment: Disruption of mitochondrial membrane integrity in human HCT-116 cells assessed as change in mitochondrial size by TEM analysis; format: cell membranes
A549 [36] = experiment: Induction of apoptosis in human A549 cells assessed as apoptotic rate at IC50 incubated for 24 hrs by Annexin-V and 7-AAD staining based flow cytometric analysis (reference value: 4.56 +/- 0.81%); format: functional
Mitochondrial membrane [37] = experiment: Disruption of mitochondrial membrane integrity in human HCT-116 cells assessed as presence of large mitochondria by TEM analysis; format: cell membranes
HCT-116 [38] = experiment: Induction of apoptosis in human HCT-116 cells assessed as increase in apoptotic cells incubated for 48 hrs by Annexin-V and 7-AAD staining based flow cytometric analysis (reference value: 6.82 +/- 1.05%); format: functional
Mitochondrial membrane [39] = experiment: Induction of mitochondrial membrane depolarization in human HCT-116 cells assessed as increase in mitochondrial fission by measuring appearance of circular mitochondria by confocal microscopic analysis; format: cell membranes
HL-60 = experiment: Cytotoxicity against human HL-60 cells; format: functional, cell-based

Acetylcholinesterase, sequence (P22303 whole entry): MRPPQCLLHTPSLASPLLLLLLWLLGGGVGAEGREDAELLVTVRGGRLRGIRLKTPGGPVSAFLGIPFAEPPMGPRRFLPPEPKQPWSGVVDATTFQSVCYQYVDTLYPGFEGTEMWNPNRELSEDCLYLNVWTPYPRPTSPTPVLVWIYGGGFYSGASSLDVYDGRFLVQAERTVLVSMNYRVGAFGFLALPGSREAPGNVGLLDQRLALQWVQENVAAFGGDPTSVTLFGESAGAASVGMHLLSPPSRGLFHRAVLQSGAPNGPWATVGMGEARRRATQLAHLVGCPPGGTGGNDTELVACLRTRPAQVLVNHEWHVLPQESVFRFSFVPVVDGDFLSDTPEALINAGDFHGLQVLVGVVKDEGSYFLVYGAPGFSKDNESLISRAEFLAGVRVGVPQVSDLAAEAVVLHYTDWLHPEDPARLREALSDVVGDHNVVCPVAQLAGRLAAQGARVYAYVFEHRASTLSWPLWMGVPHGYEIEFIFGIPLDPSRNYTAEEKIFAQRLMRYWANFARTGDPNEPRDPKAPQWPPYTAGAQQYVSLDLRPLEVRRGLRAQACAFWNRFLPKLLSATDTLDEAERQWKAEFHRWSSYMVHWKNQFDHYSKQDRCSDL

CC(=O)Nc1ccc2[nH]c3c(c2c1)CC(NC(=O)c1ccc(C)o1)CC3 (stereo unspecified)
IC50 (HCT-116 [1]): > 50 µM | IC50 (MCF7 [2]): > 50 µM | IC50 (A549 [3]): > 50 µM | IC50 at 72 h [4]: > 50 µM

CC(=O)NC1CCc2[nH]c3ccc(S(N)(=O)=O)cc3c2C1 (stereo unspecified)
IC50 (HCT-116 [1]): > 50 µM | IC50 (MCF7 [2]): > 50 µM | IC50 (A549 [3]): > 50 µM | IC50 at 72 h [4]: > 50 µM

O=C1[C@H](O)C[C@]23CCCN1[C@@H]2c1c([nH]c2ccccc12)CC3
IC50 (Acetylcholinesterase): 38.5 µM

CC(=O)Nc1ccc2[nH]c3c(c2c1)CC(NC(=O)c1cc2ccccc2[nH]1)CC3 (stereo unspecified)
IC50 (HCT-116 [1]): > 50 µM | IC50 (MCF7 [2]): > 50 µM | IC50 (A549 [3]): > 50 µM | IC50 at 72 h [4]: > 50 µM

CC(=S)NC1CCc2[nH]c3ccc(OC(F)(F)F)cc3c2C1 (stereo unspecified)
Activity (Mitochondrial membrane [5]): Active | inhibition (HCT-116 [6]): Dose-Dependent Effect | IC50 (HCT-116 [1]): 23.6 µM | inhibition (A549 [7]): Dose-Dependent Effect | Activity [8]: Non-Toxic | IC50 (MCF7 [2]): 31 µM | Activity (HCT-116 [9]): 31.15% | Activity (Mitochondrial membrane [10]): Active | Activity (Mitochondrial membrane [11]): Active | Activity (Mitochondrial membrane [12]): Active | IC50 (A549 [3]): 25.7 µM | Activity (A549 [13]): Active | survival at 4.5 µM [14]: 70% | survival at 1.5 µM [15]: 70% | Activity (HCT-116 [16]): 17.95% | Activity (Mitochondrial membrane [17]): Active | Activity (A549 [18]): 46.75% | Activity (HCT-116 [19]): 16.95% | inhibition (HCT-116 [20]): Active | Activity (Mitochondrial membrane [21]): Active | Activity (HCT-116 [22]): 14.63% | Activity (Mitochondrial membrane [23]): Active | Activity (A549 [24]): 53.35% | Activity (HCT-116 [25]): 18.9% | Activity (HCT-116 [26]): 17.5% | Activity (Mitochondrial membrane [27]): Active | Activity (Mitochondrial membrane [28]): Active | Activity (Mitochondrial membrane [29]): Active | Activity (A549 [30]): 27.97% | inhibition (MCF7 [31]): Dose-Dependent Effect | Activity (Mitochondrial membrane [32]): 16.9 | inhibition (A549 [33]): Active | Activity (A549 [34]): 15.45% | Activity (Mitochondrial membrane [35]): Active | Activity (A549 [36]): 16.64% | Activity (Mitochondrial membrane [37]): Active | Activity (HCT-116 [38]): 45.03% | Activity (Mitochondrial membrane [39]): Active | IC50 at 72 h [4]: > 50 µM

CC(=O)Nc1ccc2[nH]c3c(c2c1)CC(NC(C)=O)CC3 (stereo unspecified)
IC50 (HCT-116 [1]): > 50 µM | IC50 (MCF7 [2]): > 50 µM | IC50 (A549 [3]): > 50 µM | IC50 at 72 h [4]: > 50 µM

CC(=O)Nc1ccc2[nH]c3c(c2c1)CC(NC(=O)c1ccccc1)CC3 (stereo unspecified)
IC50 (HCT-116 [1]): > 50 µM | IC50 (MCF7 [2]): > 50 µM | IC50 (A549 [3]): > 50 µM | IC50 at 72 h [4]: > 50 µM

CC[C@]12CCCN3C(=O)C(=O)O[C@@]31c1c([nH]c3ccccc13)CC2
IC50 (HL-60): > 100 µM
